{"source": "patent US20210363496A1", "about": "“METHOD FOR OBTAINING ARTIFICIAL NEUROMUSCULAR JUNCTION FROM PLURIPOTENT STEM CELLS” (KYOTO UNIVERSITY, priority 2017, published 2021)", "type_in_all_cases": "cell-based, human", "key": {"in vitro hNMJ culture": {"tested_on": "in vitro hNMJ culture", "assay": "Contribution of agrin to the in vitro NMJ system (NMJ area, TEM)", "conditions": "long-term culture", "experimental": "(§1) MyoD-201B7 strain was subjected to myogenic differentiation according to the procedure described in Tanaka et al., PLOS ONE 2013. Specifically, MyoD-201B7 cells were seeded on a Matrigel-coated plate, and myogenic differentiation was induced by adding 1 μg/mL of doxycycline to myogenic differentiation medium (10% KSR+αMEM). Ten days after the addition of doxycycline, neural differentiation was induced by changing the medium to Neurobasal medium supplemented with neurotrophic factors (BDNF, GDNF, and NT3; 10 ng/ml each, R&D Systems). The medium was then replaced every 3 to 4 days to continue culturing.\nNMJ cultures were pre-fixed in 2% paraformaldehyde and 2% glutaraldehyde in 0.1 M phosphate buffer (pH 7.4) at 4° C. overnight. Post-fixation was done in 1% osmium tetroxide solution for 1 hour at room temperature. The samples were dehydrated in ethanol (30%, 50%, 70%, 90%, 95%, and 100%) and embedded in Epon resin. Ultrathin sections (80 nm) were cut and stained with uranyl acetate and alkaline lead citrate. The specimens were examined with a transmission electron microscope (H-7650, Hitachi, Ltd.).\nImage analysis and quantification were performed by MetaMorph software (Molecular Devices, LLC. USA)."}, "[1]": {"tested_on": "in vitro hNMJ culture (myotubes)", "assay": "Calcium imaging of in vitro hNMJ", "conditions": "day 20 of NMJ differentiation, Ca imaging at five ROIs", "experimental": "MyoD-201B7 cells were seeded at a density of 2.2×10^4 cells/well and differentiated into NMJs in a Costar 96-well black-wall/clear-bottom plate. On day 20, the growth medium was removed, and 100 μL Fluo-8 recording medium was added to the cells at 37° C. for 1 hour. The cells were washed twice with PBS and then imaged on In Cell Analyzer 2000. The fluorescence intensity was expressed as the F/F0 ratio.\nMyoD-201B7 cells were seeded onto a Matrigel-coated, 96-well black-wall/clear-bottom plate at a density of 2.2×10^4 cells/well. Half of the medium in each well was exchanged every day until the cultures started contracting. The growth medium was removed, and cells were loaded with 100 μL Fluo-8 recording medium at 37° C. for 1 hour. The cells were washed twice with PBS and then the differentiation medium was added to the wells. Ca oscillations were monitored with the FDSS microplate reader, data points were collected at 1-minute intervals, and the data points were analyzed using FDSS software for frequency and amplitude quantification."}, "[2]": {"tested_on": "hNMJ culture expressing ChR2-EYFP", "assay": "Motion analysis of in vitro hNMJ culture by photoactivation (ChR2-EYFP)", "conditions": "day 100 of NMJ differentiation", "experimental": "The plasmid deposited at Addgene by Karl Deisseroth was purchased and used as a plasmid containing a photoactivation domain (pLenti-Synapsin-hChR2 (H134R)-EYFP-WPRE, Addgene plasmid number 20945). The lentivirus transduction system (ViraPower hiperform lentivirus expression system, Invitrogen) was used to transduce the target gene into neural cells. NMJ cultures were treated with virus-containing medium at 37° C. for 48 hours with 5% CO2. After virus infection, the medium was removed and the Neurobasal medium was added for target gene expression. The medium was changed every 3 to 4 days. EYFP expression was examined by confocal microscopy with proper optical settings. Photoactivation was performed with at 488-nm laser wavelength. In addition to EYFP signals, bright-field images were captured simultaneously for muscle movement analysis."}, "[3]": {"tested_on": "in vitro hNMJ culture (myotubes)", "assay": "Motion vector analysis of myotube contraction in in vitro hNMJ", "conditions": "day 20 of NMJ differentiation", "experimental": "as §1\nUsing α7s ILCE-7S (Sony Corporation), phase-contrast images using a red-filtered optical source and fluorescence (Fluo8, green) were continuously captured at 15 fps. Using the SI8000 Cell Motion Imaging System (Sony Corporation), which provides motion vector analysis based on the block matching method, motion quantification with the red-separated images in regions of interest (ROIs) and brightness analysis with the green-separated images were performed.\nBoth moving image capture and motion analysis were performed at 38 fps using the SI8000 Cell Motion Imaging System (Sony Corporation)."}}, "note": "Entries after “also recorded” stand apart in the source; their conditions may differ."}
{"compound": "agrin", "values": [{"measurement": "area of the NMJ (ratio of NMJ region)", "setting": "in vitro hNMJ culture", "value": "increased"}, {"measurement": "morphology of myotubes and axon terminals by TEM", "setting": "in vitro hNMJ culture", "value": "Myotube was well confined at fold of junction that bounds axon terminal"}]}
{"compound": "curare", "values": [{"measurement": "excitation of myotubes (transient Ca2+ elevation)", "setting": "[1]", "value": "reduced; also recorded: stopped"}, {"measurement": "muscle contraction triggered by blue light (488 nm)", "setting": "[2]", "value": "inhibited"}]}
{"compound": "[Ca+2]", "note": "[Ca^2+, calcium]", "values": [{"measurement": "excitation of myotubes (transient Ca2+ elevation)", "setting": "[1]", "value": "enhanced"}]}
{"compound": "O=C1CN(/N=C/c2ccc(-c3ccc([N+](=O)[O-])cc3)o2)C(O)=N1", "note": "[dantrolene]", "values": [{"measurement": "spontaneous synchronized contraction-like movement of myotubes", "setting": "[3]", "value": "inhibited"}]}
